# Legend:
# Oryctolagus sp. = conditions: developmental; development
# Apis mellifera = conditions: acute; duration: 48 hours; oral; unspecified; mortality
# Mus musculus = conditions: chronic; duration: 2 years; organ weight
# Bibionidae = conditions: chronic/long-term; duration: 28 days; seedling emergence
# Folsomia candida = conditions: chronic/long-term; duration: 28 days
# Rattus norvegicus = conditions: for NOEC: chronic, M
# Daphnia magna = conditions: chronic/long-term; duration: 21 days; growth
# Canidae = conditions: chronic; duration: 52 weeks; oral; Dog Other; body weight
# Pimephales promelas = conditions: chronic/long-term; duration: 278 days; growth
# Lepomis macrochirus = conditions: acute; duration: 96 hours; mortality
# Anas platyrhynchos = conditions: short-term; oral; feed; mortality
# Aphidius rhopalosiphi = test: LR50; higher = less toxic; conditions: not reported; mortality
smiles,measurement,setting,value
O=[N+]([O-])c1cc(C(F)(F)F)c(Cl)c([N+](=O)[O-])c1Nc1ncc(C(F)(F)F)cc1Cl [Fluazinam],NOAEL,Oryctolagus sp.,7 mg/kg-day
same,LD50,Apis mellifera,> 100 µg/piece
same,NOAEL,Mus musculus,1.12 mg/kg-day
same,NOEC,Bibionidae,0.00625 mg/L
same,NOEC,Folsomia candida,< 1.57 mg/kg
same,LD50,"Rattus norvegicus; acute, F, mortality",4100 mg/kg-day
same,NOEC,Rattus norvegicus,5 mg/kg-day
same,NOEC,Rattus norvegicus; mortality,100 mg/kg-day
same,LD50,"Colinus virginianus; acute, oral, mortality",1780 mg/kg-day
same,NOEC,Colinus virginianus; reproduction developmental,60.4 mg/kg-day
same,NOEC,Daphnia magna,0.0125 mg/L
same,NOAEL,Canidae,1 mg/kg-day
same,NOEC,Pimephales promelas,0.0029 mg/L
same,LC50,Lepomis macrochirus,0.055 µg/mL
same,LC50,Anas platyrhynchos,> 1230 mg/kg-day
same,LC50,"Tagia sp.; acute, duration: 14 days, mortality",> 1000 mg/kg
same,NOEC,"Tagia sp.; chronic/long-term, duration: 28 days",0.35 mg/kg
same,LR50,Aphidius rhopalosiphi,> 200 g/ha
